Assay results published in patent publication US8648105B2, “Diarylthiohydantoin compounds” (The Regents of the University of California, priority 2006, dated 2014).
“Also recorded” adds a separate entry of the source.

Tests used:
[1] = target: T1, androgen receptor (Homo sapiens, UniProt P10275, T878A); conditions: 10 uM (R1881 1 nM), LNCaP
T1 sequence (P10275 1-920 T878A): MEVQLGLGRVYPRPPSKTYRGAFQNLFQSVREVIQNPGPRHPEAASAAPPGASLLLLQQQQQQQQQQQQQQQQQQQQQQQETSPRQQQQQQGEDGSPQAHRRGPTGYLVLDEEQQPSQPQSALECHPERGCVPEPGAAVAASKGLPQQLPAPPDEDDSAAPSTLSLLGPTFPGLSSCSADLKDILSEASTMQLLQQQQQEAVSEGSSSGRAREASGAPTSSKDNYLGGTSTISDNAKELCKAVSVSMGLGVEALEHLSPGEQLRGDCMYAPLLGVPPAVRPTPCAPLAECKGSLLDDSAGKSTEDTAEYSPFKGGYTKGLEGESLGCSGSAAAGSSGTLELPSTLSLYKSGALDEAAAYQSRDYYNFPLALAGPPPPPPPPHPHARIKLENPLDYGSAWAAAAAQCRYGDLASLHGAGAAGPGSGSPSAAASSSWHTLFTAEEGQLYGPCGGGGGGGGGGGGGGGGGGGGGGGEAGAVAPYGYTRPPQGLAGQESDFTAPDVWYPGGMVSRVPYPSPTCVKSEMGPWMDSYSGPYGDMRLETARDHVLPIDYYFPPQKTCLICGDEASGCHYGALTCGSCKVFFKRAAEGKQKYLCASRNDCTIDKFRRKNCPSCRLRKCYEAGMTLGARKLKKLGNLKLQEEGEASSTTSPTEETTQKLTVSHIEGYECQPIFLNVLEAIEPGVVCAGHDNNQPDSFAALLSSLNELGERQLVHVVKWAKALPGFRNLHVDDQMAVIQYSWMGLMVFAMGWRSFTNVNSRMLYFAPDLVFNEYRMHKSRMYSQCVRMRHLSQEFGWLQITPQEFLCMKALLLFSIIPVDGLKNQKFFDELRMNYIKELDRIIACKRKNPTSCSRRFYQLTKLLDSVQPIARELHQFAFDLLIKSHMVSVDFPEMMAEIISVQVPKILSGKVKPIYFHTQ

[2] = system: AR-overexpressed LNCaP xenograft tumors; experiment: AR-overexpressed LNCaP xenograft model in castrated SCID mice; assay type: in vivo
Description: FIG. 7 is a graph of tumor size. AR overexpressing LNCaP cells were injected in the flanks of castrated SCID mice, subcutaneously. When tumors reached about 100 cubic mm, they were randomized into five groups. Each group had nine animals. […]. The tumors were measured three-dimensionally, width, length and depth, using a caliper.
FIG. 8 depicts experimental results of tumor size. At day 18, the animals were imaged via an optical CCD camera, 3 hours after last dose of treatment. A ROI was drawn over the tumor for luciferase activity measurement in photon/second. The right panels is a representation of the ROIs measurements.
Compounds of the invention are used to examine if the diaryihydantoin derivatives have in vivo effects on hormone refractory prostate cancer. First we examine this compound on xenograft tumors established from AR-overexpressed LNCaP cells. Engineered cells in Matrigel (Collaborative Biomedical) are injected subcutaneously into the flanks of the castrated male SCID mice. Tumor size is measured weekly in three dimensions using calipers. After xenograft tumors established (tumor size at least 40 mm^3), mice with tumors are randomized and treated with different doses of compounds orally once daily. The inhibitory effect on growth of AR-overexpressed LNCaP xenograft model is studied as follows. Mice with established LN-AR xenograft tumors are randomized and treated with indicated compounds orally once daily. Tumor size are measured by caliber.
All animal experiments were performed in compliance with the guidelines of the Animal Research Committee of the University of California at Los Angeles. Animals were bought from Taconic and maintained in a laminar flow tower in a defined flora colony. LNCaP-AR and LNCaP-vector cells were maintained in RPMI medium supplemented with 10% FBS. 10^6 cells in 100 μl of 1:1 Matrigel to RPMI medium were injected subcutaneously into the flanks of intact or castrated male SCID mice. Tumor size was measured weekly in three dimensions (length×width×depth) using calipers. Mice were randomized to treatment groups when tumor size reached approximately 100 mm^3. Drugs were given orally every day at 10 mg/kg and 50 mg/kg. To obtain pharmacodynamic readout, the animals were imaged via an optical CCD camera, 3 hours after last dose of the treatment. A ROI is drawn over the tumor for luciferase activity measurement in photon/second. The right panels were a representation of the ROIs measurements. […]

[3] = system: urogenital tract; experiment: Luciferase transgenic mice with testosterone pellet, urogenital tract weight and photon emission (FIG. 22); assay type: in vivo; conditions: castrated mice with testosterone pellet, 10 mg/kg per day, 14 days
Description: FIG. 22 presents results of an experiment conducted with wild type nontransgenic mice (WT), castrated luciferase transgenic mice (Cast), and non-castrated luciferase transgenic mice (Intact). Data are shown for castrated luciferase transgenic mice treated with an implanted testosterone pellet yielding 12.5 mg per kilogram body weight with a 90 day release period (T/Cast), and data are shown for non-castrated luciferase transgenic mice treated with an implanted testosterone pellet yielding 12.5 mg per kilogram body weight with a 90 day release period (Intact+T). […]. (A) Urogenital tract weight at 14 days. (B) Photon emission rate at 14 days. In all cases, a hormone refractory disease state was not induced.
[…]. Moreover, the higher the dose, the lower the PSA level. […]. The weight and rate of photon emission increased for both intact and castrated mice.

CNC(=O)c1ccc(N2C(=S)N(c3ccc(C#N)c(C(F)(F)F)c3)C(=O)C23CCC3)cc1F [NC53, N-methyl-4-[7-(4-cyano-3-trifluoromethylphenyl)-8-oxo-6-thioxo-5,7-diaza-spiro[3.4]oct-5-yl]-2-fluorobenzamide]
androgen receptor nuclear translocation [1]: inhibited androgen receptor nuclear translocation | photon emission associated with luciferase activity ([2]; FIG. 8, day 18, relative to vehicle): photon emission decreased | tumor growth / tumor volume ([2]; oral once daily, FIG. 7: 10 or 50 mg/kg, 18 days): effective to prevent tumor growth and even to cause tumor shrinkage, and was distinctly more effective than bicalutamide; also recorded: tumors decreased in size | urogenital tract weight and photon emission [3]: decrease in weight and photon emission
